# In ChEMBL document CHEMBL3044604, “Synthesis of some substituted furan-2(5H)-ones and derived quinoxalinones as potential anti-microbial and anti-cancer agents” (Med Chem Res, 2011):
# Assays:
# [1] = Inhibition of Marthasterias glacialis CDK1/cyclin B using histone H1 as substrate and [gamma32P]ATP after 10 min by scintillation counting
# [2] = molecular target: Glycogen synthase kinase-3 (Homo sapiens, UniProt P49840+P49841); assay: Inhibition of GSK3alpha/beta (unknown origin); format: protein assay
# [3] = molecular target: Cyclin-dependent kinase 5/CDK5 activator 1 (Homo sapiens, UniProt Q00535); assay: Inhibition of CDK5/p25 (unknown origin); format: protein-complex assay
# Cyclin-dependent kinase 5/CDK5 activator 1, sequence (Q00535 whole entry, the tested form may be a part): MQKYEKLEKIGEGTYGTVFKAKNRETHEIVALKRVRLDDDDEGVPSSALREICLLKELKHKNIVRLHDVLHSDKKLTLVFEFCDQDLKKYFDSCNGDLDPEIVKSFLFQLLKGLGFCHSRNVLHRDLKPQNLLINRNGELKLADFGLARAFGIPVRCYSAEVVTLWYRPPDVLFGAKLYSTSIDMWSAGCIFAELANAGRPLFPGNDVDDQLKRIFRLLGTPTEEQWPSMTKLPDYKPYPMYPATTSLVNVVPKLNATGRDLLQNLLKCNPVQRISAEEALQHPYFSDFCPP
# Cyclin-dependent kinase 5/CDK5 activator 1, sequence (Q15078 whole entry, further chain, the tested form may be a part): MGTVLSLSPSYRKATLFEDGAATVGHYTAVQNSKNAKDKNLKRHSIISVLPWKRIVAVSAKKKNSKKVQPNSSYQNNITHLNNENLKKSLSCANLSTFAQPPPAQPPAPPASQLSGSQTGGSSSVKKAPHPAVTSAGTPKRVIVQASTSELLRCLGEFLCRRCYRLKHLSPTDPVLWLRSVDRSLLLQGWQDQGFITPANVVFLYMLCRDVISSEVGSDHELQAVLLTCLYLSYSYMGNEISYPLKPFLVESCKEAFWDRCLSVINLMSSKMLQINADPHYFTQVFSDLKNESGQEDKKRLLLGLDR
# Candida albicans [4] = assay: Antifungal activity against Candida albicans ATCC 10231 at 1 mg/ml after 24 hr by agar cup diffusion method; format: functional; conditions: ATCC 10231, 24 h, read-out: DIZ
# Staphylococcus aureus [5] = assay: Antibacterial activity against Staphylococcus aureus ATCC 6538 at 1 mg/ml after 24 hr by agar cup diffusion method; format: functional; conditions: ATCC 6538, 24 h, read-out: DIZ
# Escherichia coli [6] = assay: Antibacterial activity against Escherichia coli NCTC 10418 incubated for 48 hr followed by subculturing measured after 18 hr; format: functional
# Candida albicans [7] = assay: Antifungal activity against Candida albicans ATCC 10231 incubated for 48 hr followed by subculturing measured after 18 hr; format: functional
# Escherichia coli [8] = assay: Antibacterial activity against Escherichia coli NCTC 10418 after 48 hr by two-fold serial dilution method; format: functional; conditions: NCTC 10418, 48 h
# Candida albicans [9] = assay: Antifungal activity against Candida albicans ATCC 10231 after 48 hr by two-fold serial dilution method; format: functional; conditions: ATCC 10231, 48 h
# Staphylococcus aureus [10] = assay: Antibacterial activity against Staphylococcus aureus ATCC 6538 after 48 hr by two fold serial dilution method; format: functional; conditions: ATCC 6538, 48 h
# Escherichia coli [11] = assay: Antibacterial activity against Escherichia coli NCTC 10418 at 1 mg/ml after 24 hr by agar cup diffusion method; format: functional; conditions: NCTC 10418, 24 h, read-out: DIZ
# Staphylococcus aureus [12] = assay: Antibacterial activity against Staphylococcus aureus ATCC 6538 incubated for 48 hr followed by subculturing measured after 18 hr; format: functional
# Pseudomonas aeruginosa [13] = assay: Antibacterial activity against Pseudomonas aeruginosa ATCC 9027 at 1 mg/ml after 24 hr by agar cup diffusion method; format: functional; conditions: ATCC 9027, 24 h, read-out: DIZ
# Pseudomonas aeruginosa [14] = assay: Antibacterial activity against Pseudomonas aeruginosa ATCC 9027 after 48 hr by two-fold serial dilution method; format: functional; conditions: ATCC 9027, 48 h
# Pseudomonas aeruginosa [15] = assay: Antibacterial activity against Pseudomonas aeruginosa ATCC 9027 incubated for 48 hr followed by subculturing measured after 18 hr; format: functional
SMILES,IC50 [1] [µM],IC50 [2] [µM],IC50 [3] [µM],MIC (Escherichia coli [8]) [µg/mL],MIC (Candida albicans [9]) [µg/mL],MIC (Staphylococcus aureus [10]) [µg/mL],MIC (Pseudomonas aeruginosa [14]) [µg/mL],zone of inhibition at 1000 µg/mL (Candida albicans [4]) [mm],zone of inhibition at 1000 µg/mL (Staphylococcus aureus [5]) [mm],MBC (Escherichia coli [6]) [µg/mL],MFC (Candida albicans [7]) [µg/mL],zone of inhibition at 1000 µg/mL (Escherichia coli [11]) [mm],MBC (Staphylococcus aureus [12]) [µg/mL],zone of inhibition at 1000 µg/mL (Pseudomonas aeruginosa [13]) [mm],MBC (Pseudomonas aeruginosa [15]) [µg/mL]
O=C1OC(c2cn(-c3ccccc3)nc2-c2ccccc2)C(Br)=C1O (configuration not stated),> 10,> 10,> 10,62.5,,,62.5,16.5,,250,,19,,19,125
COc1ccc(-c2nn(-c3ccccc3)cc2/C=C/C(=O)C(=O)O)cc1,> 10,> 10,> 10,,31.2,125,,20,19,,125,17,> 500,13,
O=C(O)/C(Br)=C/c1cn(-c2ccccc2)nc1-c1ccc(Br)cc1,> 10,> 10,> 10,,,31.2,250,15,33,,,17,62.5,18,500
O=c1[nH]c2ccccc2nc1/C(I)=C/c1ccc(Cl)cc1,> 10,> 10,> 10,,,,,,,,,15,,16.5,
CC1(C)S[C@@H]2[C@H](NC(=O)[C@H](N)c3ccccc3)C(=O)N2[C@H]1C(=O)O [AMPICILLIN],,,,7.81,,3.9,125,,40,31.2,,26,15.6,,250
O=C1OC(c2cn(-c3ccccc3)nc2-c2ccc(Br)cc2)C(Br)=C1O (configuration not stated),> 10,> 10,> 10,,,125,,16,18,,,17,250,,
O=C1OC(c2ccc(Cl)cc2)C(I)=C1O (configuration not stated),> 10,> 10,> 10,,,,,17,,,,,,,
COc1ccc(-c2nn(-c3ccccc3)cc2C2OC(=O)C(O)=C2Br)cc1 (configuration not stated),> 10,> 10,> 10,,,,,15,,,,,,,
O=C(O)C(=O)/C=C/c1cn(-c2ccccc2)nc1-c1ccccc1,> 10,> 10,> 10,31.2,31.2,,,21,,125,125,19,,12,
O=C1OC(c2ccccc2)C(I)=C1O (configuration not stated),> 10,> 10,> 10,,62.5,,,20.5,,,125,,,,
Clc1ccccc1C(c1ccccc1)(c1ccccc1)n1ccnc1 [CLOTRIMAZOLE],,,,,7.81,,,28,,,15.6,,,,
Cc1nn(-c2ccccc2)c(C)c1C1OC(=O)C(O)=C1I (configuration not stated),> 10,> 10,> 10,,,31.2,,17.5,19,,,,62.5,,

# Continued, in another order:
IC50 [1] [µM],IC50 [2] [µM],IC50 [3] [µM],MIC (Escherichia coli [8]) [µg/mL],MIC (Candida albicans [9]) [µg/mL],MIC (Staphylococcus aureus [10]) [µg/mL],MIC (Pseudomonas aeruginosa [14]) [µg/mL],SMILES,zone of inhibition at 1000 µg/mL (Candida albicans [4]) [mm],zone of inhibition at 1000 µg/mL (Staphylococcus aureus [5]) [mm],MBC (Escherichia coli [6]) [µg/mL],MFC (Candida albicans [7]) [µg/mL],zone of inhibition at 1000 µg/mL (Escherichia coli [11]) [mm],MBC (Staphylococcus aureus [12]) [µg/mL],zone of inhibition at 1000 µg/mL (Pseudomonas aeruginosa [13]) [mm],MBC (Pseudomonas aeruginosa [15]) [µg/mL]
> 10,> 10,> 10,,,,,Cc1nn(-c2ccccc2)c(C)c1C1OC(=O)C(O)=C1Cl (configuration not stated),16.5,,,,,,,
> 10,> 10,> 10,31.2,31.2,62.5,,O=C1OC(c2ccc(Cl)cc2)C(Br)=C1O (configuration not stated),21,20,125,62.5,20,150,,
> 10,> 10,> 10,7.81,,7.81,7.81,O=C(COC1=C(Br)C(c2ccccc2)OC1=O)NCc1ccccc1 (configuration not stated),17,23,15.6,,24,15.6,25,31.2
> 10,> 10,> 10,,,62.5,,Cc1nn(-c2ccccc2)c(C)c1C1OC(=O)C(O)=C1Br (configuration not stated),17,19,,,17,125,,
> 10,> 10,> 10,62.5,7.81,,,O=C(O)C(=O)/C=C/c1cn(-c2ccccc2)nc1-c1ccc(Br)cc1,21,,> 500,31.2,19,,13,
> 10,> 10,> 10,,,15.6,,O=c1[nH]c2ccccc2nc1/C(Cl)=C/c1ccc(Cl)cc1,17,25,,,,125,15,
> 10,> 10,> 10,31.2,,,31.2,Cc1nn(-c2ccccc2)c(C)c1/C=C(\Br)C(=O)O,,,125,,19,,20,62.5
> 10,> 10,> 10,62.5,,,,Cc1nn(-c2ccccc2)c(C)c1/C=C(\I)c1nc2ccccc2[nH]c1=O,,,250,,20,,17.5,
> 10,> 10,> 10,,,,,COc1ccc(C2OC(=O)C(O)=C2I)cc1OC (configuration not stated),17.5,,,,,,,
> 10,> 10,> 10,,,,,O=c1[nH]c2ccccc2nc1/C(I)=C/c1ccccc1,16,,,,,,,
> 10,> 10,> 10,125,,125,31.2,O=C(O)/C(Br)=C/c1ccc(Cl)cc1,15,30,500,,18,500,18,62.5
> 10,> 10,> 10,62.5,31.2,62.5,,O=C1OC(c2ccccc2)C(Br)=C1O (configuration not stated),20.5,23,250,62.5,21,> 500,13.5,
